Each block holds one compound with its values, some of them ahead of it.
Columns and labels:
[1] = biological target: Na(+)/citrate cotransporter (Homo sapiens, UniProt Q86YT5); assay: Inhibition of human SLC13A5 transfected in HEK293T cells incubated for 30 mins by D4-citrate uptake assay; type: cell-based
[2] = Metabolic stability in human plasma assessed as compound remaining measured after 2 hrs by LC-MS/MS analysis; type: ADME, cell-free; details: read-out: Stability
[3] = Metabolic stability in rat liver microsome assessed as compound remaining measured after 2 hrs in presence of NADPH by LC-MS/MS analysis; type: ADME; details: liver microsomes, read-out: Stability
[4] = Metabolic stability in human liver microsome assessed as compound remaining measured after 2 hrs in presence of NADPH by LC-MS/MS analysis; type: ADME; details: microsomes
[5] = Drug accumulation in Sprague-Dawley rat liver at 5 mg/kg, po measured after 2 hrs by LC-MS/MS analysis; type: ADME, organism-based; details: in vivo
[6] = Drug accumulation in Sprague-Dawley rat prostate gland at 5 mg/kg, po measured after 2 hrs by LC-MS/MS analysis; type: ADME, organism-based; details: in vivo
[7] = Drug accumulation in Sprague-Dawley rat brain at 5 mg/kg, po measured after 2 hrs by LC-MS/MS analysis; type: ADME, organism-based; details: in vivo
[8] = tested on: HepG2; assay: Cytotoxicity against human HepG2 cells; type: toxicity, cell-based
[9] = tested on: Huh-7; assay: Cytotoxicity against human Huh-7 cells; type: toxicity, cell-based
[10] = tested on: HEK-293T; assay: Cytotoxicity against HEK293T cells; type: toxicity, cell-based; details: human
[11] = Cmax in Sprague-Dawley rat at 50 mg/kg, po measured after 24 hrs by LC-MS/MS analysis; type: ADME, organism-based; details: in vivo
[12] = AUC (0 to infinity) in Sprague-Dawley rat at 50 mg/kg, po measured after 24 hrs by LC-MS/MS analysis; type: ADME, organism-based; details: in vivo
[13] = Half-life in Sprague-Dawley rat at 50 mg/kg, po measured after 24 hrs by LC-MS/MS analysis; type: ADME, organism-based; details: in vivo
[14] = Volume of distribution in Sprague-Dawley rat at 50 mg/kg, po measured after 24 hrs by LC-MS/MS analysis; type: ADME, organism-based; details: in vivo
[15] = Oral bioavailability in Sprague-Dawley rat at 50 mg/kg measured after 24 hrs by LC-MS/MS analysis; type: ADME, organism-based; details: in vivo
[16] = AUC (0 to infinity) in Sprague-Dawley rat at 5 mg/kg, iv measured after 24 hrs by LC-MS/MS analysis; type: ADME, organism-based; details: in vivo
[17] = Half-life in Sprague-Dawley rat at 5 mg/kg, iv measured after 24 hrs by LC-MS/MS analysis; type: ADME, organism-based; details: in vivo
[18] = Volume of distribution in Sprague-Dawley rat at 5 mg/kg, iv measured after 24 hrs by LC-MS/MS analysis; type: ADME, organism-based; details: in vivo
[19] = Clearance in Sprague-Dawley rat at 5 mg/kg, iv measured after 24 hrs by LC-MS/MS analysis; type: ADME, organism-based; details: in vivo
[20] = Clearance in Sprague-Dawley rat at 50 mg/kg, po measured after 24 hrs by LC-MS/MS analysis; type: ADME, organism-based; details: in vivo
[21] = Tmax in Sprague-Dawley rat at 50 mg/kg, po measured after 24 hrs by LC-MS/MS analysis; type: ADME, organism-based; details: in vivo
[22] = Toxicity in C57BL/6J mouse assessed as animal death at 100 mg/kg; type: organism-based; details: in vivo
[23] = Acute toxicity in C57BL/6J mouse at 50 to 300 mg/kg measured after 7 days; type: organism-based; details: in vivo, 168 h, dose 50-300 mg/kg, time 7 day

Sequence of Na(+)/citrate cotransporter (Q86YT5 whole entry): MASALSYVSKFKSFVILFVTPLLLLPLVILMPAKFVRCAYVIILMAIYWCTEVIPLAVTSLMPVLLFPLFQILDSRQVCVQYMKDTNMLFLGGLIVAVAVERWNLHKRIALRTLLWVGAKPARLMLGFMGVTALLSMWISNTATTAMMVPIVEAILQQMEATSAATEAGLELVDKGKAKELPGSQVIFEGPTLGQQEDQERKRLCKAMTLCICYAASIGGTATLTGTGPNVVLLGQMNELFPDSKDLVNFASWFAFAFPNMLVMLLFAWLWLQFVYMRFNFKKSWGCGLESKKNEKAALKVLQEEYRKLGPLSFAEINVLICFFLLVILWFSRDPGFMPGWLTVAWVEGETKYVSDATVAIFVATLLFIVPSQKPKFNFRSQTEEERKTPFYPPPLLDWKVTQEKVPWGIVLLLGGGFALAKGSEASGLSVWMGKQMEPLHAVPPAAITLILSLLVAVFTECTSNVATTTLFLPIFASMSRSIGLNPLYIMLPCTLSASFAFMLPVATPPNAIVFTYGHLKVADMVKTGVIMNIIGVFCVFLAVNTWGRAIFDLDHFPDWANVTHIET

- IC50 [1]: 310 nM
SMILES: CCOc1cccc(-c2ccc(CCC(O)(CC(=O)O)C(=O)O)cc2)c1 (stereo unspecified)

- IC50 [1]: 860 nM
SMILES: O=C(O)CC(O)(CCc1ccc(N2CCOCC2)cc1)C(=O)O (stereo unspecified)

- IC50 [1]: 190 nM
SMILES: O=C(O)CC(O)(CCc1ccc(-c2cccc(OC(F)(F)F)c2)cc1)C(=O)O (stereo unspecified)

- IC50 [1]: 270 nM
SMILES: CCCOc1cccc(-c2ccc(CCC(O)(CC(=O)O)C(=O)O)cc2)c1 (stereo unspecified)

- IC50 [1]: 210 nM
SMILES: O=C(O)CC(O)(CCc1ccc(-c2ccccc2C(F)(F)F)cc1)C(=O)O (stereo unspecified)

- IC50 [1]: 340 nM
SMILES: COc1cccc(-c2ccc(CCC(O)(CC(=O)O)C(=O)O)cc2)c1 (stereo unspecified)

- IC50 [1]: 290 nM
SMILES: COc1ccccc1-c1ccc(CCC(O)(CC(=O)O)C(=O)O)cc1 (stereo unspecified)

- Cmax [11]: 1.36 µg/mL
- AUC(0-inf) [12]: 10600 ng·h/mL
- half-life [13]: 12.4 h
- Vd [14]: 83.96 L/kg
- bioavailability [15]: 1.83%
- AUC(0-inf) [16]: 40400 ng·h/mL
- half-life [17]: 2.61 h
- Vd [18]: 0.69 L/kg
- clearance [19]: 2 mL/min/kg
- CL/F [20]: 80.8 mL/min/kg
SMILES: CC(C)(C)c1ccc(CC[C@@](O)(CC(=O)O)C(=O)O)cc1

- IC50 [1]: 440 nM
SMILES: CC(C)Oc1cccc(-c2ccc(CCC(O)(CC(=O)O)C(=O)O)cc2)c1 (stereo unspecified)

The remaining lines, values behind:

SMILES: O=C(O)CC(O)(CCc1nc2ccccc2s1)C(=O)O (stereo unspecified)
- IC50 [1]: 160 nM
- remaining at 2 h [2]: > 60%
- remaining at 2 h [3]: > 60%

SMILES: O=C(O)CC(O)(CCc1ccc(-c2cccc3c2NCCC3)cc1)C(=O)O (stereo unspecified)
- IC50 [1]: 350 nM

SMILES: O=C(O)CC(O)(CCc1ccc2ccccc2c1)C(=O)O (stereo unspecified)
- IC50 [1]: 73 nM
- remaining at 2 h [2]: > 60%
- remaining at 2 h [3]: > 60%

SMILES: O=C(O)CC(O)(CCc1ccc(-c2ccccc2)cc1)C(=O)O (stereo unspecified)
- IC50 [1]: 67 nM
- remaining at 2 h [2]: > 60%
- remaining at 2 h [3]: > 60%
- Stability [4]: Stable
- Drug uptake [5]: Active
- Drug uptake [6]: Active
- Drug uptake [7]: Not Active
- Activity [8]: Non-Toxic
- Activity [9]: Non-Toxic
- Activity [10]: Non-Toxic
- Cmax [11]: 288 µg/mL
- AUC(0-inf) [12]: 705000 ng·h/mL
- half-life [13]: 1.09 h
- Vd [14]: 0.11 L/kg
- bioavailability [15]: 48.7%
- AUC(0-inf) [16]: 145000 ng·h/mL
- half-life [17]: 0.69 h
- Vd [18]: 0.03 L/kg
- clearance [19]: 0.667 mL/min/kg
- CL/F [20]: 1.17 mL/min/kg
- Tmax [21]: 0.76 h
- Activity [22]: Non-Toxic
- Activity [23]: Non-Toxic

SMILES: O=C(O)CC(O)(CCc1ccc(-c2ccc3c(c2)OCO3)cc1)C(=O)O (stereo unspecified)
- IC50 [1]: 110 nM

SMILES: COc1cc(-c2ccc(CCC(O)(CC(=O)O)C(=O)O)cc2)ccn1 (stereo unspecified)
- IC50 [1]: 860 nM

SMILES: O=C(O)CC(O)(CCc1ccc(-c2cccc(C(F)(F)F)c2)cc1)C(=O)O (stereo unspecified)
- IC50 [1]: 150 nM

SMILES: O=C(O)CC(O)(CCc1ccc(-c2ccn[nH]2)cc1)C(=O)O (stereo unspecified)
- IC50 [1]: 1180 nM

SMILES: CCn1nccc1-c1ccc(CCC(O)(CC(=O)O)C(=O)O)cc1 (stereo unspecified)
- IC50 [1]: 130 nM
- remaining at 2 h [2]: > 60%
- remaining at 2 h [3]: > 60%

SMILES: Cn1nccc1-c1ccc(CCC(O)(CC(=O)O)C(=O)O)cc1 (stereo unspecified)
- IC50 [1]: 1970 nM
